Test results as given in US10335401B2, “Non-aromatic heterocyclic derivative having MGAT2 inhibitory activity” (Shionogi & Co., Ltd., priority 2015, dated 2019).

Biological target: recombinant human MGAT2 (Homo sapiens (Human), UniProt Q3SYC2)
Test: Measurement of human MGAT2 inhibitory activity
Assay type: biochemical
Details: recombinant human MGAT2 membrane fraction (Sf-9); 2-Oleoylglycerol and Oleoyl-CoA substrates; 1 hour at room temperature; Diolein detected by RapidFire Q-TOF MS
Description: A full-length human MGAT2 gene to which a Flag-tag had been added at the N-terminal was inserted into pFastBac (from Invitrogen). A recombinant baculovirus was produced in accordance with the protocol for a Bac-to-Bac baculovirus expression system (produced by Invitrogen), and Sf-9 cells were infected therewith. The cells were collected and sonicated, and then the membrane fraction was collected through centrifugation.
Solutions of the compounds of the present invention in DMSO were each aliquoted into 0.2-μL portions in a 384-well polystyrene microplate produced by Corning Incorporated, and 5 μL of an enzyme solution prepared with an assay buffer (100 mmol/L phosphate buffer (pH 7.4) containing 2 mmol/L DTT) and 5 μL of a substrate solution (100 mmol/L phosphate buffer (pH 7.4), 30 μmol/L 2-Oleoylglycerol, 10 μmol/L Oleoyl-CoA) were added thereto, and the resultant was stirred and centrifuged, and incubated in a moist chamber at room temperature for 1 hour. […] Diolein as a reaction product (P) of 2-Oleoylglycerol as the substrate and an ammonium adduct ion of the IS were detected, and the peak intensity ratio, P/IS, was calculated from the peak heights to evaluate the inhibitory activity. […] The inhibitory activity was calculated from the formula below with TIBCO Spotfire (produced by TIBCO Software Inc.): Inhibitory activity (%)=[1−{Sample−Control(−)}/{Control(+)−Control(−))}]*100 where Sample indicates a peak intensity ratio: P/IS, when the compound of the present invention was added.

Sequence of recombinant human MGAT2 (Q3SYC2 whole entry): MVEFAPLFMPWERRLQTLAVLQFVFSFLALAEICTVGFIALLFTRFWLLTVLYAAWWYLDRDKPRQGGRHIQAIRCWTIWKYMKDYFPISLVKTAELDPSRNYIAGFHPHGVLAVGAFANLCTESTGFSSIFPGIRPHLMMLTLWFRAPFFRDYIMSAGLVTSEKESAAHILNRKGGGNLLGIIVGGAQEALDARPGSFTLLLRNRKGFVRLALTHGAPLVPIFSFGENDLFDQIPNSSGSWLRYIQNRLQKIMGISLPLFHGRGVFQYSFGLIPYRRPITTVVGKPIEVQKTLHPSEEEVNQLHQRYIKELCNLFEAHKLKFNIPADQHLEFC

Q: With COc1ccc(C2=C(CNC(C)=O)C(=O)N[C@@](c3ccc(OCCCC(F)(F)F)cc3)(C(F)(F)F)C2)nc1 (racemic) [Compound I-11] as the compound, how does the IC50 read?
A: 110 nM

Q: How did the IC50 turn out when CS(=O)(=O)CC(=O)NCC1=C(c2ccc(C(F)F)cn2)CC(c2cnn(CCCC(F)(F)F)c2)(C(F)(F)F)NC1=O (racemic) [Compound I-110] was run?
A: 91 nM

Q: Cc1ccc(C2=C(CNS(C)(=O)=O)C(=O)N[C@@](c3ccc(OCCCC(F)(F)F)cc3)(C(F)(F)F)C2)cc1 [Compound I-1] was tested. Which IC50 did it give?
A: 21 nM

Q: Cc1ccc(C2=C(CNS(C)(=O)=O)C(=O)N[C@@](c3ccc(OCCCC(F)(F)F)cc3)(C(F)(F)F)C2)nc1 [Compound I-3] was tested. Which IC50 did it give?
A: 120 nM

Q: CC(=O)NCC1=C(c2ccc(C)cn2)C[C@](c2ccc(OCCCC(F)(F)F)cc2)(C(F)(F)F)NC1=O [Compound I-4] was tested. Which IC50 did it give?
A: 32 nM

Q: With Cc1ccc(C2=C(CNS(N)(=O)=O)C(=O)N[C@@](c3ccc(OCCCC(F)(F)F)cc3)(C(F)(F)F)C2)nc1 [Compound I-5] as the compound, how does the IC50 read?
A: 230 nM

Q: Which IC50 does the source give for Cc1ccc(C2=C(CNC(N)=O)C(=O)N[C@@](c3ccc(OCCCC(F)(F)F)cc3)(C(F)(F)F)C2)nc1 [Compound I-6] here?
A: 120 nM

Q: For COC(=O)NCC1=C(c2ccc(C)cn2)C[C@](c2ccc(OCCCC(F)(F)F)cc2)(C(F)(F)F)NC1=O [Compound I-7], which IC50 is on record?
A: 150 nM

Q: For Cc1ccc(C2=C(CNC(=O)C3CC3)C(=O)N[C@@](c3ccc(OCCCC(F)(F)F)cc3)(C(F)(F)F)C2)nc1 [Compound I-8], which IC50 is on record?
A: 13 nM

Q: CC(=O)NCC1=C(c2ccc(CO)cn2)C[C@](c2ccc(OCCCC(F)(F)F)cc2)(C(F)(F)F)NC1=O [Compound I-9] was tested. Which IC50 did it give?
A: 29 nM

Q: Which IC50 does the source give for Cc1ccc(C2=C(CNC(=O)CS(C)(=O)=O)C(=O)N[C@@](c3ccc(OCCCC(F)(F)F)cc3)(C(F)(F)F)C2)nc1 [Compound I-10] here?
A: < 4.6 nM

Q: Which IC50 does the source give for COc1ccc(C2=C(CNC(=O)CS(C)(=O)=O)C(=O)N[C@@](c3ccc(OCCCC(F)(F)F)cc3)(C(F)(F)F)C2)nc1 [Compound I-12] here?
A: 2.5 nM

Q: How did the IC50 turn out when COc1ccc(C2=C(CNC(=O)CC(F)(F)F)C(=O)N[C@@](c3ccc(OCCCC(F)(F)F)cc3)(C(F)(F)F)C2)nc1 [Compound I-13] was run?
A: 3.3 nM

Q: COc1ccc(C2=C(CNC(=O)C(C)C)C(=O)N[C@@](c3ccc(OCCCC(F)(F)F)cc3)(C(F)(F)F)C2)nc1 [Compound I-14] was tested. Which IC50 did it give?
A: 8 nM

Q: Which IC50 does the source give for COc1ccc(C2=C(CNC(=O)C3CCC3)C(=O)N[C@@](c3ccc(OCCCC(F)(F)F)cc3)(C(F)(F)F)C2)nc1 [Compound I-15] here?
A: 10 nM

Q: Which IC50 does the source give for COc1ccc(C2=C(CNC(=O)CC(C)(C)C)C(=O)N[C@@](c3ccc(OCCCC(F)(F)F)cc3)(C(F)(F)F)C2)nc1 [Compound I-16] here?
A: 52 nM

Q: With COc1ccc(C2=C(CNC(=O)c3ccno3)C(=O)N[C@@](c3ccc(OCCCC(F)(F)F)cc3)(C(F)(F)F)C2)nc1 [Compound I-17] as the compound, how does the IC50 read?
A: 7.6 nM

Q: For COc1ccc(C2=C(CNS(C)(=O)=O)C(=O)N[C@@](c3ccc(OCCCC(F)(F)F)cc3)(C(F)(F)F)C2)nc1 [Compound I-18], which IC50 is on record?
A: 330 nM

Q: How did the IC50 turn out when COc1ccc(C2=C(CNS(=O)(=O)CC(F)(F)F)C(=O)N[C@@](c3ccc(OCCCC(F)(F)F)cc3)(C(F)(F)F)C2)nc1 [Compound I-19] was run?
A: 240 nM

Q: COc1ccc(C2=C(CNS(=O)(=O)CC#N)C(=O)N[C@@](c3ccc(OCCCC(F)(F)F)cc3)(C(F)(F)F)C2)nc1 [Compound I-20] was tested. Which IC50 did it give?
A: 35 nM

Q: With COc1ccc(C2=C(CNS(=O)(=O)C3CCOCC3)C(=O)N[C@@](c3ccc(OCCCC(F)(F)F)cc3)(C(F)(F)F)C2)nc1 [Compound I-22] as the compound, how does the IC50 read?
A: 200 nM

Q: COc1ccc(C2=C(CNS(=O)(=O)c3ccccc3)C(=O)N[C@@](c3ccc(OCCCC(F)(F)F)cc3)(C(F)(F)F)C2)nc1 [Compound I-23] was tested. Which IC50 did it give?
A: 750 nM

Q: With COc1ccc(C2=C(CNC(=O)C3CC(=O)C3)C(=O)N[C@@](c3ccc(OCCCC(F)(F)F)cc3)(C(F)(F)F)C2)nc1 [Compound I-24] as the compound, how does the IC50 read?
A: 40 nM

Q: Cc1ccc(C2=C(CNC(=O)CC(F)(F)F)C(=O)N[C@@](c3ccc(OCCCC(F)(F)F)cc3)(C(F)(F)F)C2)nc1 [Compound I-26] was tested. Which IC50 did it give?
A: 2.3 nM

Q: For Cc1ccc(C2=C(CNC(=O)c3ccno3)C(=O)N[C@@](c3ccc(OCCCC(F)(F)F)cc3)(C(F)(F)F)C2)nc1 [Compound I-27], which IC50 is on record?
A: 2.2 nM

Q: Which IC50 does the source give for Cc1ccc(C2=C(CNS(=O)(=O)CC#N)C(=O)N[C@@](c3ccc(OCCCC(F)(F)F)cc3)(C(F)(F)F)C2)nc1 [Compound I-28] here?
A: 100 nM

Q: With Cc1ccc(C2=C(CNC(=O)C3CS(=O)(=O)C3)C(=O)N[C@@](c3ccc(OCCCC(F)(F)F)cc3)(C(F)(F)F)C2)nc1 [Compound I-29] as the compound, how does the IC50 read?
A: 18 nM

Q: How did the IC50 turn out when Cc1ccc(C2=C(CNC(=O)CC#N)C(=O)N[C@@](c3ccc(OCCCC(F)(F)F)cc3)(C(F)(F)F)C2)nc1 [Compound I-30] was run?
A: 12 nM

Q: Which IC50 does the source give for Cc1ccc(C2=C(CNC(=O)CO)C(=O)N[C@@](c3ccc(OCCCC(F)(F)F)cc3)(C(F)(F)F)C2)nc1 [Compound I-31] here?
A: 70 nM

Q: Which IC50 does the source give for COc1ccc(C2=C(CNC(=O)NC(C)C)C(=O)N[C@@](c3ccc(OCCCC(F)(F)F)cc3)(C(F)(F)F)C2)nc1 [Compound I-32] here?
A: 97 nM

Q: For COc1ccc(C2=C(CNC(=O)OC(C)C)C(=O)N[C@@](c3ccc(OCCCC(F)(F)F)cc3)(C(F)(F)F)C2)nc1 [Compound I-33], which IC50 is on record?
A: 340 nM

Q: With CC(=O)NCC1=C(c2ccc(C(C)C)cn2)C[C@](c2ccc(OCCCC(F)(F)F)cc2)(C(F)(F)F)NC1=O [Compound I-35] as the compound, how does the IC50 read?
A: 18 nM

Q: COc1ccc(C2=C(CNC(=O)C3COC3)C(=O)N[C@@](c3ccc(OCCCC(F)(F)F)cc3)(C(F)(F)F)C2)nc1 [Compound I-36] was tested. Which IC50 did it give?
A: 53 nM

Q: For COc1ccc(C2=C(CNC(=O)CC#N)C(=O)N[C@@](c3ccc(OCCCC(F)(F)F)cc3)(C(F)(F)F)C2)nc1 [Compound I-37], which IC50 is on record?
A: 28 nM

Q: For COc1ccc(C2=C(CNC(=O)C(C)(C)C#N)C(=O)N[C@@](c3ccc(OCCCC(F)(F)F)cc3)(C(F)(F)F)C2)nc1 [Compound I-38], which IC50 is on record?
A: 17 nM

Q: How did the IC50 turn out when COc1ccc(C2=C(CNC(=O)C3(C#N)CC3)C(=O)N[C@@](c3ccc(OCCCC(F)(F)F)cc3)(C(F)(F)F)C2)nc1 [Compound I-39] was run?
A: 91 nM

Q: With COc1ccc(C2=C(CNC(=O)CO)C(=O)N[C@@](c3ccc(OCCCC(F)(F)F)cc3)(C(F)(F)F)C2)nc1 [Compound I-40] as the compound, how does the IC50 read?
A: 43 nM

Q: With COc1ccc(C2=C(CNC(=O)C(C)(C)O)C(=O)N[C@@](c3ccc(OCCCC(F)(F)F)cc3)(C(F)(F)F)C2)nc1 [Compound I-41] as the compound, how does the IC50 read?
A: 75 nM

Q: With CC(=O)NCC1=C(c2ccc(C(C)(C)O)cn2)C[C@](c2ccc(OCCCC(F)(F)F)cc2)(C(F)(F)F)NC1=O [Compound I-42] as the compound, how does the IC50 read?
A: 10 nM

Q: Which IC50 does the source give for CC(C)c1ccc(C2=C(CNC(=O)CS(C)(=O)=O)C(=O)N[C@@](c3ccc(OCCCC(F)(F)F)cc3)(C(F)(F)F)C2)nc1 [Compound I-43] here?
A: < 1 nM

Q: Which IC50 does the source give for CC(C)c1ccc(C2=C(CNC(=O)C3CS(=O)(=O)C3)C(=O)N[C@@](c3ccc(OCCCC(F)(F)F)cc3)(C(F)(F)F)C2)nc1 [Compound I-44] here?
A: 9.2 nM

Q: With CC(C)c1ccc(C2=C(CNC(=O)C(C)(C)C#N)C(=O)N[C@@](c3ccc(OCCCC(F)(F)F)cc3)(C(F)(F)F)C2)nc1 [Compound I-45] as the compound, how does the IC50 read?
A: 4.4 nM

Q: Which IC50 does the source give for COc1ccc(C2=C(CNC(=O)C3CS(=O)(=O)C3)C(=O)N[C@@](c3ccc(OCCCC(F)(F)F)cc3)(C(F)(F)F)C2)nc1 [Compound I-46] here?
A: 62 nM

Q: For CC(C)(O)c1ccc(C2=C(CNC(=O)CS(C)(=O)=O)C(=O)N[C@@](c3ccc(OCCCC(F)(F)F)cc3)(C(F)(F)F)C2)nc1 [Compound I-47], which IC50 is on record?
A: 0.73 nM

Q: CC(C)(O)c1ccc(C2=C(CNC(=O)C3CS(=O)(=O)C3)C(=O)N[C@@](c3ccc(OCCCC(F)(F)F)cc3)(C(F)(F)F)C2)nc1 [Compound I-48] was tested. Which IC50 did it give?
A: 3.2 nM

Q: Which IC50 does the source give for CC(=O)NCC1=C(c2ccc(Br)cn2)C[C@](c2ccc(OCCCC(F)(F)F)cc2)(C(F)(F)F)NC1=O [Compound I-49] here?
A: 140 nM

Q: With CC(=O)NCC1=C(c2ccc(C(C)=O)cn2)C[C@](c2ccc(OCCCC(F)(F)F)cc2)(C(F)(F)F)NC1=O [Compound I-51] as the compound, how does the IC50 read?
A: 130 nM

Q: How did the IC50 turn out when CC(C)(C#N)C(=O)NCC1=C(c2ccc(C(C)(C)O)cn2)C[C@](c2ccc(OCCCC(F)(F)F)cc2)(C(F)(F)F)NC1=O [Compound I-52] was run?
A: 3.1 nM

Q: CC(C)c1ccc(C2=C(CNC(=O)C3COC3)C(=O)N[C@@](c3ccc(OCCCC(F)(F)F)cc3)(C(F)(F)F)C2)nc1 [Compound I-53] was tested. Which IC50 did it give?
A: 11 nM

Q: How did the IC50 turn out when CC(C)c1ccc(C2=C(CNC(=O)CC(=O)OC(C)(C)C)C(=O)N[C@@](c3ccc(OCCCC(F)(F)F)cc3)(C(F)(F)F)C2)nc1 [Compound I-54] was run?
A: 82 nM

Q: For CC(C)c1ccc(C2=C(CNC(=O)CC(=O)O)C(=O)N[C@@](c3ccc(OCCCC(F)(F)F)cc3)(C(F)(F)F)C2)nc1 [Compound I-55], which IC50 is on record?
A: 160 nM

Q: How did the IC50 turn out when CC(=O)NCC1=C(c2ccc(OC(F)F)cn2)C[C@](c2ccc(OCCCC(F)(F)F)cc2)(C(F)(F)F)NC1=O [Compound I-56] was run?
A: 17 nM

Q: With CS(=O)(=O)CC(=O)NCC1=C(c2ccc(OC(F)F)cn2)C[C@](c2ccc(OCCCC(F)(F)F)cc2)(C(F)(F)F)NC1=O [Compound I-57] as the compound, how does the IC50 read?
A: 0.62 nM

Q: For CC(=O)NCC1=C(c2ccc(C(F)F)cn2)C[C@](c2ccc(OCCCC(F)(F)F)cc2)(C(F)(F)F)NC1=O [Compound I-58], which IC50 is on record?
A: 34 nM

Q: With CS(=O)(=O)CC(=O)NCC1=C(c2ccc(C(F)F)cn2)C[C@](c2ccc(OCCCC(F)(F)F)cc2)(C(F)(F)F)NC1=O [Compound I-59] as the compound, how does the IC50 read?
A: 1.1 nM
